From ChEMBL document CHEMBL5046218, “Novel Dual-Target μ-Opioid Receptor and Dopamine D3 Receptor Ligands as Potential Nonaddictive Pharmacotherapeutics for Pain Management” (J Med Chem, 2021)
Active and inactive are the calls of the source. The rule behind the calls is not given here.

Legend:
D(2) dopamine receptor [1] = molecular target: T1, D(2) dopamine receptor (Homo sapiens, UniProt P14416); test: Displacement of [3H]-N-methylspiperone from human dopamine D2 receptor expressed in HEK293 cell membranes incubated for 60 mins by microbeta scintillation counting analysis; parameters: species or system Membrane
T1 sequence (P14416 whole entry): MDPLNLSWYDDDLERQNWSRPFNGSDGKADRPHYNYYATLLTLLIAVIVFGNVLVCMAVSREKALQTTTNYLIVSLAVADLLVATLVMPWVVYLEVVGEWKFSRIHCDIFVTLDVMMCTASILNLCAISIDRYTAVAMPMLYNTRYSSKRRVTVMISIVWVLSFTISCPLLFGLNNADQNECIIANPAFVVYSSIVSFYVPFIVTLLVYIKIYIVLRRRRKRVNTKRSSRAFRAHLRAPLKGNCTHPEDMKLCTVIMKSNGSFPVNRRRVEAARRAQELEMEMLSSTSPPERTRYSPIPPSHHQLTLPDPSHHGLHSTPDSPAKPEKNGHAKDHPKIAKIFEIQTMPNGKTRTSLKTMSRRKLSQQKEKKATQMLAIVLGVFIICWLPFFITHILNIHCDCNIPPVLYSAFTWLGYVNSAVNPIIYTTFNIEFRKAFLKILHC

D(3) dopamine receptor [2] = molecular target: T2, D(3) dopamine receptor (Homo sapiens, UniProt P35462); test: Displacement of [3H]-N-methylspiperone from human dopamine D3 receptor expressed in HEK293 cell membranes incubated for 60 mins by microbeta scintillation counting analysis; parameters: species or system Membrane
T2 sequence (P35462 whole entry): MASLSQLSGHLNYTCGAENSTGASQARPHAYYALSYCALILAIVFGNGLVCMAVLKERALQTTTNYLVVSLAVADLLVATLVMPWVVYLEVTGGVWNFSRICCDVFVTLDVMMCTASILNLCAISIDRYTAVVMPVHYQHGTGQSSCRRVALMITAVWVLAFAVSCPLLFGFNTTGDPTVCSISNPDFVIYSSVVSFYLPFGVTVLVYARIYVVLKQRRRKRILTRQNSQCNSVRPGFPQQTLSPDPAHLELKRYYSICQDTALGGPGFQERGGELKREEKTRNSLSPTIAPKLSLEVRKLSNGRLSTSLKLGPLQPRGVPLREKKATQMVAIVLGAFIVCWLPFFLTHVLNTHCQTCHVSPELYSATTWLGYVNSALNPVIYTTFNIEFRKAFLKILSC

D(4) dopamine receptor = molecular target: T3, D(4) dopamine receptor (Homo sapiens, UniProt P21917); test: Displacement of [3H]-N-methylspiperone from human dopamine D4 receptor expressed in HEK293 cell membranes incubated for 60 mins by microbeta scintillation counting analysis; parameters: species or system Membrane
T3 sequence (P21917 whole entry): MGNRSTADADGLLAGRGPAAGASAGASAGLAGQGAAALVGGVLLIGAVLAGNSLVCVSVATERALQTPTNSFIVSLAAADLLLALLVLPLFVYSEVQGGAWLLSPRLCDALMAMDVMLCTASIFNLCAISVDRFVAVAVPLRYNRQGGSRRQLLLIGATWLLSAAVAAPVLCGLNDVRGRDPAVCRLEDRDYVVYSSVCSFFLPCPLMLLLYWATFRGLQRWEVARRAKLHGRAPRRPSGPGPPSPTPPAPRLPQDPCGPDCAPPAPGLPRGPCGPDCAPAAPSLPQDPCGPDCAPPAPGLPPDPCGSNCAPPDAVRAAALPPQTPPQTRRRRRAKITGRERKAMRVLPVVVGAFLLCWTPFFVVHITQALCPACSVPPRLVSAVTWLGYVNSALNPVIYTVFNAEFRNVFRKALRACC

D(2) dopamine receptor [3] = molecular target: T1, D(2) dopamine receptor; test: Displacement of [3H]-(R)-(+)7-OH-DPAT from human dopamine D2 receptor expressed in HEK293 cell membranes incubated for 90 mins by microbeta scintillation counting analysis; parameters: species or system Membrane
D(3) dopamine receptor [4] = molecular target: T2, D(3) dopamine receptor; test: Displacement of [3H]-(R)-(+)7-OH-DPAT from human dopamine D3 receptor expressed in HEK293 cell membranes incubated for 90 mins by microbeta scintillation counting analysis; parameters: species or system Membrane
D(3) dopamine receptor [5] = molecular target: T2, D(3) dopamine receptor; test: Agonist activity at human dopamine D3 receptor expressed in HEK293T cells assessed as GalphaoA activation preincubated for 5 mins with coelenterazine followed by compound addition and measured after 10 mins by BRET assay; assay type: functional, cell-based
[6] = molecular target: Mu-type opioid receptor (Homo sapiens) (UniProt P35372); conditions: HEK293T, time 10.0 min
Sequence of Mu-type opioid receptor (Homo sapiens) (P35372 whole entry): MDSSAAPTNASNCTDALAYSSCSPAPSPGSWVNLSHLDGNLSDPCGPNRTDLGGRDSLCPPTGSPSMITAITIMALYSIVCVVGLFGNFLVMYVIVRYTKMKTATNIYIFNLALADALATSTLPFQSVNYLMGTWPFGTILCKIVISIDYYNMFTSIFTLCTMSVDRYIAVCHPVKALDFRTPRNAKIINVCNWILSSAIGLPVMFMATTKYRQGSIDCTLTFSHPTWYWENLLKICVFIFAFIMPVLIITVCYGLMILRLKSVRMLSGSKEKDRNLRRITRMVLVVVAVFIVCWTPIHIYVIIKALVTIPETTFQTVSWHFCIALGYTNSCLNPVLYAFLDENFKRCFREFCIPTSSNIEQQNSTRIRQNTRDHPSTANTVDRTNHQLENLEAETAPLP

[7] = molecular target: Mu-type opioid receptor (Homo sapiens) (UniProt P35372); conditions: HEK293T, time 10.0 min; remark: listed apart in the source
[8] = molecular target: Mu-type opioid receptor (Homo sapiens) (UniProt P35372); conditions: HEK293T, time 10.0 min; remark: listed apart in the source
D(3) dopamine receptor [9] = molecular target: T2, D(3) dopamine receptor; test: Antagonist activity at human […] expressed in HEK293T cells assessed as GalphaoA activation preincubated with compound in D-PBS for 3 hrs followed by coelenterazine addition for 5 mins once again compound addition for 10 mins by BRET assay; assay type: functional, cell-based
D(3) dopamine receptor [10] = molecular target: T2, D(3) dopamine receptor; conditions: HEK293T, time 10.0 min

SMILES	Ki (D(2) dopamine receptor [1]) [nM]	Ki (D(3) dopamine receptor [2]) [nM]	Ki (D(4) dopamine receptor) [nM]	also measured
Oc1cccc([C@@]23CCC[C@@H]([C@H]2O)N(C/C=C/c2ccccc2)CC3)c1	7380	15700	36900	Ki (D(2) dopamine receptor [3]): 2790 nM; Ki (D(3) dopamine receptor [4]): 20000 nM
CN1CCC(c2ccccc2)(c2ccccc2)C1	> 100000	> 100000	35400	
CCc1cccc(N2CCN(CCCCNCCC(C(=O)N(C)C)(c3ccccc3)c3ccccc3)CC2)c1Cl	62.1	17.8	503	Ki (D(2) dopamine receptor [3]): 44.2 nM; Ki (D(3) dopamine receptor [4]): 38.3 nM
CCc1cc(Cl)c(OC)c(C(=O)NCC2CCCN2CCCCNCCC(C(=O)N(C)C)(c2ccccc2)c2ccccc2)c1O (configuration not stated)	502		3420	Ki (D(2) dopamine receptor [3]): 93.7 nM
CN(C)C(=O)C(CCN1CCN(c2cccc(Cl)c2Cl)CC1)(c1ccccc1)c1ccccc1	74.7		102	Ki (D(2) dopamine receptor [3]): 31.3 nM
CN(C)CCC(C(=O)NCCCCN1CCN(c2cccc(Cl)c2Cl)CC1)(c1ccccc1)c1ccccc1	42.7	11.8	466	
CN(C)C(=O)C(CCN1CCC(O)(c2ccc(Cl)cc2)CC1)(c1ccccc1)c1ccccc1 [LOPERAMIDE]	5790	[…]	1850	
O=C(NCCCCN1CC[C@]2(c3cccc(O)c3)CCC[C@H]1[C@@H]2O)c1cc2ccccc2[nH]1	4530	5630	5630	
CCOC(=O)/C=C1\[C@@H]2CCC[C@@]1(c1cccc(O)c1)CCN2CC1CC1CCNC(=O)c1cc2ccccc2[nH]1 (some centres not stated)	3890	4350	23400	
CCOC(=O)/C=C1\[C@@H]2CCC[C@@]1(c1cccc(O)c1)CCN2C[C@H]1C[C@@H]1CCNC(=O)c1cc2ccccc2[nH]1 (relative stereo)	2860	1290	29200	EC50 (D(3) dopamine receptor [5]): 1480 nM; pEC50 [6]: inactive; pEC50 [7]: inactive; pEC50 [8]: inactive
N#CC(CCN1CCN(c2cccc(Cl)c2Cl)CC1)(c1ccccc1)c1ccccc1	2630	2240	8490	
N#CC(CCNCCCCC(=O)N1CCN(c2cccc(Cl)c2Cl)CC1)(c1ccccc1)c1ccccc1	1940	1360	3930	
O=C(NCCCCN1CC[C@]2(c3cccc(O)c3)CCC[C@H]1[C@H]2O)c1cc2ccccc2[nH]1	1310		3810	
CN(C)C(=O)C(CCN1CCc2ccc(C#N)cc2C1)(c1ccccc1)c1ccccc1	2270	1630	18000	
Oc1cccc(C(CCNCCCCN2CCN(c3ccccc3)CC2)c2cccc(O)c2)c1	987	249	422	
CCC(=O)C(CC(C)N(C)C)(c1ccccc1)c1ccccc1 (configuration not stated) [METHADONE]	> 100000	2110	26200	
N#CC(CCNCCC(O)CN1CCN(c2cccc(Cl)c2Cl)CC1)(c1ccccc1)c1ccccc1 (configuration not stated)	903	460	426	
CCc1cc(Cl)c(OC)c(C(=O)NC[C@@H]2CCCN2CCCCNCCC(C(=O)N(C)C)(c2ccccc2)c2ccccc2)c1O	1730		6610	
CN(C)C(=O)C(CCNCCC(O)CN1CCN(c2cccc(Cl)c2Cl)CC1)(c1ccccc1)c1ccccc1 (configuration not stated)	700	572	2780	Ki (D(2) dopamine receptor [3]): 167 nM; Ki (D(3) dopamine receptor [4]): 209 nM
CN(C)CCC(C#N)(c1ccccc1)c1ccccc1	17900	16100	23200	
CCc1cccc(N2CCN(CCC(C(=O)N(C)C)(c3ccccc3)c3ccccc3)CC2)c1Cl	43	69	64.8	Ki (D(2) dopamine receptor [3]): 20.3 nM; Ki (D(3) dopamine receptor [4]): 197 nM
CN(C)C(=O)C(CCNCCCCN1CCc2ccc(C#N)cc2C1)(c1ccccc1)c1ccccc1	1240	1060	58900	

SMILES	Ki (D(2) dopamine receptor [1]) [nM]	Ki (D(3) dopamine receptor [2]) [nM]	Ki (D(4) dopamine receptor) [nM]	also measured
Oc1cccc([C@]23CCC[C@H](NCC2)[C@@H]3O)c1	> 100000	> 100000	> 100000	Ki (D(2) dopamine receptor [3]): > 100000 nM; Ki (D(3) dopamine receptor [4]): > 100000 nM
CCC(=O)N1CCC(c2ccccc2)(c2ccccc2)C1	> 100000	> 100000	> 100000	
CCc1cc(Cl)c(OC)c(C(=O)NC[C@@H]2CCCN2CCC(C#N)(c2ccccc2)c2ccccc2)c1O	12400	1550	> 100000	
CCOC(=O)/C=C1\[C@@H]2CCC[C@@]1(c1cccc(O)c1)CCN2C[C@@H]1C[C@H]1CCNC(=O)c1cc2ccccc2[nH]1 (relative stereo)	4860	2300	17600	pEC50 [6]: inactive; pEC50 [7]: inactive; pEC50 [8]: inactive
CCc1cccc(N2CCN(CC(O)CCNCCC(C(=O)N(C)C)(c3ccccc3)c3ccccc3)CC2)c1Cl (configuration not stated)	457	123	1260	Ki (D(2) dopamine receptor [3]): 114 nM; Ki (D(3) dopamine receptor [4]): 123 nM
CN(C)CCC(C(=O)N(C)C)(c1ccccc1)c1ccccc1	> 100000	36900	20200	
CCc1cc(Cl)c(OC)c(C(=O)NCC2CCCN2CC(=O)N2CCC(c3ccccc3)(c3ccccc3)C2)c1O (configuration not stated)	2380	288	31000	
CCc1cccc(N2CCN(CCC(c3cccc(O)c3)c3cccc(O)c3)CC2)c1Cl	187	200	19.2	
CN(C)C(=O)C(CCNCCc1ccccc1)(c1ccccc1)c1ccccc1	3650	2080	12600	
N#CC(CCNCCc1ccccc1)(c1ccccc1)c1ccccc1	17600	8960	13900	
CCOC(=O)/C=C1\[C@@H]2CCC[C@@]1(c1cccc(O)c1)CCN2CCc1ccccc1	636		5470	Ki (D(2) dopamine receptor [3]): 186 nM
N#CC(CCNCCCCN1CCN(c2cccc(Cl)c2Cl)CC1)(c1ccccc1)c1ccccc1	149		25.9	Ki (D(2) dopamine receptor [3]): 36.3 nM
CCOC(=O)/C=C1\[C@@H]2CCC[C@@]1(c1cccc(O)c1)CCN2	> 100000	> 100000	> 100000	
CCOC(=O)/C=C1\[C@@H]2CCC[C@@]1(c1cccc(O)c1)CCN2CCN1CCN(c2cccc(Cl)c2Cl)CC1	51.6		1600	
CCOC(=O)/C=C1\[C@@H]2CCC[C@@]1(c1cccc(O)c1)CCN2CCCCNC(=O)c1cc2ccccc2[nH]1	2950	13700	13800	pIC50 (D(3) dopamine receptor [9]): > 5; pEC50 [6]: inactive; pEC50 [7]: inactive; pEC50 [8]: inactive; pEC50 (D(3) dopamine receptor [10]): inactive
CCC(=O)C(CCN(C)C)(c1ccccc1)c1ccccc1 [NORMETHADONE]	34900	4270	> 100000	
CCc1cc(Cl)c(OC)c(C(=O)NC[C@@H]2C[C@@H](OCCCCNCCC(C(=O)N(C)C)(c3ccccc3)c3ccccc3)CN2)c1O	9.41	2.21	674	
CCc1cccc(N2CCN(CCC(c3cccc(OC)c3)c3cccc(OC)c3)CC2)c1Cl	170	93.8	63.4	
CCc1cccc(N2CCN(CCC(c3cccc(O)c3)c3cccc(OC)c3)CC2)c1Cl (configuration not stated)	190		38.5	
Oc1cccc([C@]23CCC[C@H](NCC2)[C@H]3O)c1	> 100000	> 100000	> 100000	Ki (D(2) dopamine receptor [3]): > 100000 nM; Ki (D(3) dopamine receptor [4]): > 100000 nM
COc1cccc(C(=CCNCCCCN2CCN(c3cccc(Cl)c3Cl)CC2)c2cccc(OC)c2)c1	5240	342	26100	
CN(C)C(=O)C(CCNCCCCN1CCN(c2cccc(Cl)c2Cl)CC1)(c1ccccc1)c1ccccc1			378	
